4 molecules from patent US20210379147A1, “METHOD AND SYSTEM FOR TREATING CANCER UTILIZING TINAGL1” (The Trustees of Princeton University, priority 2018, published 2021) can be followed below.

Test [1] deals with LM2 cells. As to the kind of experiment: LM2 orthotopic tumors, single or combined agent treatment. It counts as in vivo, NSG female mice. The settings on record: for spontaneous lung metastasis: LM2 tumors, ex vivo BLI at endpoint. As for the experimental part:
FIG. 17A is an image of WB analyses where NSG female mice were injected with 10^4 LM2 cells by MFP injection, and intravenously treated with the indicated reagents twice per week when tumors reached to 2 mm in dimeter, then after 5 weeks of the treatments, the primary tumors of each group were collected and activation of EGFR and FAK in primary tumor of each group were tested by WB.
FIG. 17B is a graph illustrating tumor volumes of each treatment group from FIG. 17A.
FIG. 17C is a graph, quantifying ex vivo BLI results where lungs in mice from FIG. 17A were collected and spontaneous metastasis was examined at the endpoint.
Two molecular targeting reagents, ATN-161 (ATN) and Erlotinib (Erlo) were employed. ATN is an integrin α5β1 antagonist that inhibits the integrin signaling pathway and slows tumor progression. Erlotinib is a well-established small molecular inhibitor of EGFR and is clinically approved for cancer treatment. Mice orthotopically implanted with LM2 cells were split into 6 groups after the tumors reached 2 mm in diameter and subjected to various single or combined agent treatments twice per week [(1) PBS; (2) ATN 30 μg/mouse; (3) Erlo 100 mg/kg; (4) r-Tinagl1 30 μg/mouse; (5) ATN and Erlo; and (6) ATN, Erlo, and r-Tinagl1]. Referring to FIG. 17A, the inhibition of integrin/FAK and EGFR upon each treatment was validated by western blotting and TIC staining.
(§1) For xenograft studies, 8-weeks immunocompromised NOD Scid Gamma (NSG) or immunocompetent FVB females were used. Cells were suspended in 10 μl of PBS for mammary gland injection (MFP), or were suspended in 100 μl of PBS for intravenous injection. For human patient-derived xenograft (PDX, HCL001, kindly provided by Dr. Alana Welm) study, we followed the standard protocol for PDX transplantation, maintenance and digestion of the tumors (DeRose et al., 2011). 2×10^4 cells were suspended in 10 μl of PBS and subjected to MFP injection. For recombinant Tinagl1 (r-Tinagl1), ATN-161, Erlotinib treatments, the mice were injected with 30 μg/mouse, 30 μg/mouse, and 100 mg/kg respectively twice per week via tail-vein. Primary tumors were quantified once per week via caliper measurement. All cell lines used for lung metastasis experiments were stably labeled with a firefly luciferase expressing vector and were monitored by weekly bioluminescent imaging (BLI). At protocol-defined endpoints, lungs were dissected and fixed in bouin's solution and the metastatic lesions were counted.

The subject of test [2] is primary tumors and lung metastases. In words: IHC staining of tumor samples from treatment groups (Ki67, Casp3, CD31, α-SMA). It counts as in vivo, NSG female mice. The settings on record: for tumor cell proliferation (Ki67 staining): primary tumor and lung metastatic nodules. As for the experimental part: FIGS. 17F-17I are graphs quantifying positives cells per field where primary tumors were collected from indicated treatment groups from FIG. 17D and then subjected to IHC staining with indicated antibodies, including % Ki67^+ (17F), % Casp3^+ (17G), % CD31^+ (17H), and % α-SMA^+ (17I).
TIC staining was performed as previously described (Wan et al., 2014). Briefly, Paraffin-embedded primary tumor or lung samples were sliced into 4 μm thickness. The slides were baked overnight at 60° C. Next, the tissue slides were washed with PBS after deparaffinization and hydration and then boiled in citrate buffer at 100° C. for 40 min. After treated with 3% H2O2 for 30 min to block endogenous peroxidase, slides were incubated at 4° C. overnight with Ki67 (Leica Biosystem, Ki67-MM1-L-CE-S), cleaved caspase-3 (Cell signaling, 9661S), p-EGFR (Cell signaling, 3777), p-FAK (Cell signaling, 8556), CD31 (Cell signaling, 77699), -SMA (Sigma, A5228), or Tinagl1 (Sigma, HPA048695) antibodies. Following washes with PBS, slides were then incubated with HRP-conjugated goat anti-rabbit or mouse secondary antibody (Genetech) for 30 min at room temperature. Sections were stained by DAB and then counterstained with Gill hematoxylin according to manufacturer's instructions.

Test [3] concerns SUM159-M1a. In words: SUM159-M1a orthotopic tumors, single or combined agent treatment. The test is classed as in vivo, NSG female mice. The settings on record: SUM159-M1a model. As for the experimental part:
FIG. 17D is an image of WB analyses where NSG female mice were injected with 10^4 M1a cells by MFP injection, and treated with the indicated reagents twice per week when tumors reached to 2 mm in diameter, then after 5 weeks of the treatments, the primary tumors of each group were collected and activation of EGFR and FAK in primary tumor of each group was tested by WB.
FIG. 17E is a graph illustrating tumor volumes of each treatment group from FIG. 17D.
as §1, with “For recombinant Tinagl1 (r-Tinagl1), ATN-161, Erlotinib treatments, the mice were injected with 30 μg/mouse, 30 μg/mouse, and 100 mg/kg respectively twice per week via tail-vein.” left out

For test [4], the target named is T1, human EGFR-GFP (human, UniProt P00533 25-1210).
T1 construct: Printed both as GFP-EGFR and EGFR-GFP; the order of the two pieces is not certain; Expressed in HEK293T or LM2 cells, assayed in lysate; also called GFP-EGFR; not shown: GFP
In words: competition co-IP in lysate of HEK293T cells co-expressing Tinagl1-HA and GFP-EGFR; competitor of Tinagl1-HA.

For test [5], the target named is T2, mutant integrin β1 subunit (β1-M) with deletion of aa 130-240 (human, UniProt P05556 21-798).
T2 construct: Overexpressed in HEK293T cells, assayed in lysate; said to be still localized to the cell surface; also called β1-mutant; integrin subunit β1-Δ130-240aa
T2 sequence (P05556 other isoform, or with tags, fused parts or gaps mutant): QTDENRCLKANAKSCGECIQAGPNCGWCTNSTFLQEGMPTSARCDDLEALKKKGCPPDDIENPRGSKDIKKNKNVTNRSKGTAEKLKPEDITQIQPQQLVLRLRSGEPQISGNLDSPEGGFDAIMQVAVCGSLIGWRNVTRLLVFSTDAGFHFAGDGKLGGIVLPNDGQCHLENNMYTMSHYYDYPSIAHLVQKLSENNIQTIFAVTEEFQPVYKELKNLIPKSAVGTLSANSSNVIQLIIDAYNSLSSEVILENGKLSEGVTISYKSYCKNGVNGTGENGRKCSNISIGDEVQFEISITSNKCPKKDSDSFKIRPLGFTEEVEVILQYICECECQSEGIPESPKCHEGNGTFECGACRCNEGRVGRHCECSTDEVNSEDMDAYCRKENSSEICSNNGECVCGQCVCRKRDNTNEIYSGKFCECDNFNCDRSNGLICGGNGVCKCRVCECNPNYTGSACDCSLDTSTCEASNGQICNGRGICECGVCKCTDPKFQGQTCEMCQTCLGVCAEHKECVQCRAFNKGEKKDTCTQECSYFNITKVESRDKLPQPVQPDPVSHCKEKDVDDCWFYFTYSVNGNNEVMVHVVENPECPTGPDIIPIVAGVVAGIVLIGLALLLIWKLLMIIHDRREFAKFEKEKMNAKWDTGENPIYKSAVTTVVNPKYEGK
In words: IP and WB from HEK293T cells overexpressing β1-M and Tinagl1-HA.
Description: Immunoprecipitation (IP) and western blotting (WB) analysis. For an IP experiment, cells were collected in 1.5 ml EP tube when they reached to 100% confluency in 10 or 15 cm dish as indicated. […] Meanwhile, culture media was 100× concentrated and mixed with the cell lysates. The samples were centrifuged, 100 μl of the supernatant was transferred to a new tube as input, and the rest was incubated with 2 μg of IgG, anti-HA, anti-Myc, anti-Integrin subunit β1, anti-Integrin subunit α5 or anti-EGFR (as indicated in each experiment) overnight at 4° C. (recombinant proteins may be added at this step as indicated in each experiment). […] The beads were then washed for 5 times with IP lysis buffer. After final spin, the beads were boiled with 50 μl of 1×SDS Laemmli buffer for 5 min, and the samples were subjected to western blotting (WB). […] 100 μl of combined solution was transferred to a new tube and served as input. The rest was split into two tubes and IP with 2 μg of IgG or His antibody respectively. The IP samples were washed with PBS and analyzed with WB.

Turning to `C#Cc1cccc(Nc2ncnc3cc(OCCOC)c(OCCOC)cc23)c1` [Erlotinib], the primary tumor growth result in test [1] (LM2, twice per week, ATN 30 μg/mouse, Erlo 100 mg/kg, r-Tinagl1 30 μg/mouse) is given as “trended toward reducing primary tumor growth but did not reach statistical significance”. The spontaneous lung metastasis result in test [1] is “reduced spontaneous lung metastasis”. In addition, the “CD31+ endothelium” value in test [2] (primary and lung metastasis) is recorded as “significantly reduced”. Moreover, the “tumor cell proliferation (Ki67 staining)” value in test [2] is listed as “inhibited tumor cell proliferation in lung metastatic nodules but not primary sites”. The lung metastasis entry in test [3] is “reduced lung metastasis”.

ATN-161: the spontaneous lung metastasis result in test [1] is listed as “no reduction was observed”. The “tumor cell proliferation (Ki67 staining)” value in test [2] was “suppressed proliferation in primary tumor but not lung metastatic nodules”.

B1: full length recombinant human Tinagl1 with 6xHis tag at the C-terminus (r-Tinagl1) (other)
chain: AQQGRGRRELAPGLHLRGIRDAGGRYCQEQDLCCRGRADDCALPYLGAICYCDLFCNRTVSDCCPDFWDFCLGVPPPFPPIQGCMHGGRIYPVLGTYWDNCNRCTCQENRQWQCDQEPCLVDPDMIKAINQGNYGWQAGNHSAFWGMTLDEGIRYRLGTIRPSSSVMNMHEIYTVLNPGEVLPTAFEASEKWPNLIHEPLDQGNCAGSWAFSTAAVASDRVSIHSLGHMTPVLSPQNLLSCDTHQQQGCRGGRLDGAWWFLRRRGVVSDHCYPFSGRERDEAGPAPPCMMHSRAMGRGKRQATAHCPNSYVNNNDIYQVTPVYRLGSNDKEIMKELMENGPVQALMEVHEDFFLYKGGIYSHTPVSLGRPERYRRHGTHSVKITGWGEETLPDGRTLKYWTAANSWGPAWGERGHFRIVRGVNECDIESFVLGVWGRVGMEDMGHHVDHHHHHH
notes: also called r-Tiangl1; recombinant Tinagl1 protein
With B1, in test [4], the binding result is given as “binds”.

B2: C-terminal HA tagged Tinagl1 (Tinagl1-HA) (other)
chain: AQQGRGRRELAPGLHLRGIRDAGGRYCQEQDLCCRGRADDCALPYLGAICYCDLFCNRTVSDCCPDFWDFCLGVPPPFPPIQGCMHGGRIYPVLGTYWDNCNRCTCQENRQWQCDQEPCLVDPDMIKAINQGNYGWQAGNHSAFWGMTLDEGIRYRLGTIRPSSSVMNMHEIYTVLNPGEVLPTAFEASEKWPNLIHEPLDQGNCAGSWAFSTAAVASDRVSIHSLGHMTPVLSPQNLLSCDTHQQQGCRGGRLDGAWWFLRRRGVVSDHCYPFSGRERDEAGPAPPCMMHSRAMGRGKRQATAHCPNSYVNNNDIYQVTPVYRLGSNDKEIMKELMENGPVQALMEVHEDFFLYKGGIYSHTPVSLGRPERYRRHGTHSVKITGWGEETLPDGRTLKYWTAANSWGPAWGERGHFRIVRGVNECDIESFVLGVWGRVGMEDMGHH
notes: Expressed in LM2 or HEK293T cells; assayed in cell lysate mixed with concentrated culture media; also called Tiangl1-HA; not shown: human influenza hemagglutinin (HA) tag fused to the C-terminal
Consider B2, for which the binding result in test [5] is on record as “no binding”.
